In patent US20260069693A1, “UROLITHINS AND T-CELL MEDIATED IMMUNE RESPONSE” (priority 2022, published 2026):

Experiments:
APTK-OVA tumors = assay: adoptive transfer of UA-conditioned OT-1 T cells into mice bearing APTK-OVA tumors; type: in vivo, Rag1^−/− mice
Text: Adoptive cell transfer (ACT) represents the infusion of antigen-specific leukocytes with direct antitumor activity, yet identification, selection and expansion of lymphocyte subsets harboring optimal antitumor qualities remains one of the most crucial challenges (Rosenberg and Restifo, 2015). ACT benefits especially from minimally differentiated cells due to their improved survival and long-term potential to generate unexhausted effector cells (Luca Gattinoni et al; Mo et al., 2021; Roberto et al., 2015). In particular, CD8^+ T cells restricted in a stem-like state have been associated with enhanced tumor suppressive properties upon adoptive cell transfer (Enrico Lugli et al; Verma et al., 2021). […] The inventors cultured T cells from OT-1 donor mice (FIG. 3A) for 48 hours in the presence of UA or vehicle control, followed by adoptive transfer into immunodeficient Rag1^−/− mice. […] Moreover, consistent with an improved memory response, animals receiving UA-pretreated T cells contained less Tim3^HiPD1^Hi terminally exhausted CD8^+ T cells in the TME (FIG. 3I). Thus, UA augments immune-mediated antitumor memory upon adoptive cell transfer.
For adoptive cell transfer transfer, purified splenic T cell from OT1 mice were isolated and activated using aCD3/aCD28 stimulation beads for 48 h. After magnetic bead removal, 1×10^6 T of activated T cell were intravenously injected into Rag1^−/− recipients. To study survival of transferred T cells, stimulated OT-1 T cells were injected into mice without tumors. Subsequently, after 7 days, spleens were isolated and splenocytes were stained for the CD8^+ subsets as described below. To understand antitumor immunity conferred by transferred OT-1 lymphocytes, cells were injected into mice carrying APTK-OVA tumors 10 days after subcutaneous organoid transplantation. Tumor growth was assessed as described above. Mice were kept under regular chow food for the T cell adoptive transfer experiment and sacrificed collectively when maximum tumor diameter extended 1.5 cm.
Tumors were minced and digested with Tumor & Tissue Dissociation Reagent (BD Horizon) for 30 min. The remaining organ pieces were filtered through a 70 μm cell strainer. Cells were then washed with PBS 1% BSA and 2 mM EDTA. Immune cells were enriched on a 30%/40%/75% Percoll gradient after a 1700 rpm 17 min centrifugation. […]

[1] = commercially-available supplements containing UA; cited from earlier work
[2] = cited from earlier work
[3] = UA-T cell transfer vs DMSO treated OT-I T cells

O=c1oc2cc(O)ccc2c2ccc(O)cc12 [UA, Urolithin A]
CD62L expression in CD8+ TIL (APTK-OVA tumors; [3]): remained unchanged | expression of CD44 in CD8+ TIL (APTK-OVA tumors; [3]): lower expression | number of TCF1Hi CD8+ tumor infiltrating T cells (APTK-OVA tumors; [3]): higher number | tumor suppression (growth, final tumor weight) (APTK-OVA tumors; UA-conditioned (25 μM, 48 h) vs control OT-I T cells): more substantial tumor suppression | Tim3HiPD1Hi terminally exhausted CD8+ T cells in the TME (APTK-OVA tumors; UA-pretreated vs DMSO treated OT-I T cells): less | bioavailability profile in humans [1]: favorable bioavailability profile | safety in humans [1]: deemed safe | muscle function ([2]; Rodents fed with a UA-high diet): superior muscle function | muscle function in mice with Duchenne muscular dystrophy ([2]; UA-high diet): recovery of muscle function
